Measurements as given in PubChem BioAssay (NCI).
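Interpolation was linear, between the two tested concentrations surrounding the appropriate level; five concentrations were tested over 48 hours in 96-well plates. GI50 = concentration required for 50% inhibition of growth. TGI is the concentration that stops growth completely.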

system: MDA-MB-468 breast; experiment: NCI-60 cell line screen, 48 h

Row | Compound | GI50 [µM] | TGI [µM]
1 | Cc1nc2sc(C(=O)Nc3ccccc3)c(N)c2cc1C(=O)c1ccccc1 | 2.59 | 28.9
2 | CC(C)(C)c1ccc(CC(=O)Nc2sc3c(c2C(N)=O)CCC(=O)C3)cc1 | 1.38 | 3.72
3 | NC1=C(O)C(=O)C(c2c[nH]c3ccc(OCc4ccccc4)cc23)O1 (configuration not stated) | > 100 | > 100
4 | CNC(=O)c1cc(-c2ccc(F)cc2)cc(-c2ccc(S(=O)(=O)N3CCCC3)cc2)c1N | 5.48 | > 25
5 | COC(=O)c1cc(C)[nH]c2c(C)cc3nc4ccccc4c3c12 | 3.76 | 12.3
6 | CC1=C(SCCC(=O)OC(C[Se]C2=C(C)C(=O)c3ccccc3C2=O)C(=O)NC(C)(C)C)C(=O)c2ccccc2C1=O (configuration not stated) | 0.226 | 0.657
7 | CCCCCCCCc1cc(O)ccc1O | 11.3 | 28.6
8 | CC[C@@H](C(=O)[C@@H](C)[C@@H](O)[C@H](C)[C@@H]1O[C@@H]([C@@H](CC)C(=O)O)CC[C@@H]1C)[C@H]1O[C@]2(C=C[C@@H](O)[C@]3(CC[C@@](C)([C@H]4CC[C@](O)(CC)[C@H](C)O4)O3)O2)[C@H](C)C[C@@H]1C | 0.197 | 2.44
9 | Cn1cc(-c2csc(-c3cn(C(=O)OC(C)(C)C)c4ccccc34)n2)c2cccnc21 | 0.865 | 12.3
10 | C=Cc1cc(OC)c2c(c1)c(=O)oc1c2cc(OC)c2c(O)ccc(C3OC(C(C)O)C(O)C3O)c21 (configuration not stated) | 0.00491 | > 1
11 | CCOC(=O)N(O)c1ccc(/C=C/c2ccccc2)cc1 | 0.025 | 0.0908
12 | c1ccc(-c2cc3n4c(-c5ccccc5)nn(-c5ccccc5)c4cnc-3n2)cc1 | 4.38 | > 50
13 | COC(=O)[C@@H](C)C[C@H](Cc1ccccc1)NC(=O)c1csc([C@@H](C[C@H](C(C)C)N(C)C(=O)[C@@H](NC(=O)[C@H]2CCCCN2C)C(C(F)(F)F)C(F)(F)F)OC(C)=O)n1 | 0.0213 | > 16.7
14 | O=C(N/N=C/c1ccc(N(CCCl)CCCl)cc1)c1ccc(C(=O)N/N=C/c2ccc(N(CCCl)CCCl)cc2)cc1 | 1.6 | 80.6
15 | COc1ccc(C2C3=C(COC3=O)N(CCO)c3cc4c(cc32)CCC4)cc1 (configuration not stated) | 1.36 | 5.33
16 | Cc1c2ccccc2c(C)n2c1nc1cc(Cl)c(Cl)cc12 | 27.6 | > 100

Row | Compound | GI50 [µM] | TGI [µM]
17 | CSc1nc2ccc(C)cc2cc1/C=C1/C=C(c2ccccc2)NC1=O | 5.77 | 61.3
18 | CNc1nc(-c2ccc3c(N)n[nH]c3c2)cc(N2C[C@@H](C(=O)NC3CCCCC3)CC[C@H]2C)n1 | 0.27 | 2.44
19 | C[C@@H](C[C@H](CCO)c1ccccc1)c1ccc2ccccc2c1 | 1.53 | 2.98
20 | O=S(=O)(Nc1ccc(Cl)c(Cl)c1)c1ccc(-c2cnc(C3CC3)o2)cc1 | 0.222 | 0.736
21 | CN(C)CCOc1ccc2c(c1)C(=O)/C(=C\c1ncc([N+](=O)[O-])n1C)C2 | 0.188 | 0.516
22 | COc1cc2c(=O)n(CC3CCCCC3)c3c4cc[nH]c4ncc3c2cc1OC | 4.61 | 25.6
23 | CC(C)(C)CC(C)(C)NCC(O)COc1ccc(C(C)(C)c2ccc(OCC(O)CNC(C)(C)CC(C)(C)C)cc2)cc1 (configuration not stated) | 1.31 | 2.77
24 | c1ccc2c(NCCCN3CCOCC3)c3oc4ccccc4c3nc2c1 | 1.36 | 3.4
25 | COc1ccc(F)cc1-c1ccnc2[nH]c(C3=CCN(C4CCC(CC(=O)O)CC4)CC3)cc12 (configuration not stated) | 0.0779 | 0.444
26 | C[C@@H]1Cc2c(ccc3[nH]ncc23)[C@@H](c2ccc(NC3CN(CCCF)C3)cn2)N1CC(F)(F)F | 13.4 | 27.8
27 | CS(=O)(=O)CCNCc1ccoc1-c1ccc2ncnc(Nc3ccc(OCc4ccccc4)cc3)c2c1 | 0.506 | 4.49
28 | COc1ccc(S(=O)(=O)Nc2cc(Sc3cccc4cccnc34)c(O)c3ccccc23)cc1 | 1.15 | 3.12
29 | N=C(N)c1ccc(-c2ccc(-c3ccc(Cl)cc3Cl)s2)nc1 | 1.72 | 3.41
30 | N=C1C=C(N)C(=O)c2ccccc21 | 0.112 | 0.248
31 | COC(=O)Nc1nc2ccc(C(=O)c3cccs3)cc2[nH]1 | 0.161 | > 100
